Experimental data as given in article PMC8122463, “Coumarin-Chalcone Hybrids as Inhibitors of MAO-B: Biological Activity and In Silico Studies” (Molecules, 2021).
Entries after “also recorded” stand apart in the source; their conditions may differ.

Columns and labels:
[1] = biological target: T1, rMAO-A (Rattus norvegicus, UniProt P21396); assay: Inhibition of rMAO-A in crude rat brain mitochondria (5-HT substrate, HPLC-ED); format: biochemical; settings: substrate 5-HT
T1 construct: using a suspension of crude rat brain mitochondria as enzyme source; from tissue; host or cells: rat brain (crude mitochondrial suspension)
T1 sequence (P21396 1-526): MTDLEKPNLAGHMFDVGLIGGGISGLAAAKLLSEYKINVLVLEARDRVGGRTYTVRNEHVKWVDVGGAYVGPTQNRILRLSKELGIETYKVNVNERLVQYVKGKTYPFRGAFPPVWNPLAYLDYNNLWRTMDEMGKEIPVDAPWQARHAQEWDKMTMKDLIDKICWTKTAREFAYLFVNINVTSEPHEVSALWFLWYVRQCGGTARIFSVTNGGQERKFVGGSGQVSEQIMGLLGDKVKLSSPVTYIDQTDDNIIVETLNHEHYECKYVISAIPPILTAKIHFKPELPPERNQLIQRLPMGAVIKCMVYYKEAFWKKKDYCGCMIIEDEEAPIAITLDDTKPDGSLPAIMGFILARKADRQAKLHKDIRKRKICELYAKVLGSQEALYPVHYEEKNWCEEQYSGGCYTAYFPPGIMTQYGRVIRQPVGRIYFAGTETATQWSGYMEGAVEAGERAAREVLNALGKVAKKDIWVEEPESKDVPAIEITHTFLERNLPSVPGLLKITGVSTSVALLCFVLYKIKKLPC
Method: (§1) Fourteen derivatives differing in the substitution pattern of the cinnamyl benzene ring were studied, these compounds were tested on rat MAO-A and B to determine their inhibitory activity MAO. A general screening was carried out at 10 µM finding moderate activity for some of the compounds against rMAO-B but none against rMAO-A. Thus, five molecules were identified as possibly selective IMAO-B.
(§2) The effect of coumarin derivatives on MAO-A and MAO-B were measured using a suspension of crude rat brain mitochondria as enzyme source. 4-Dimethylaminophenethylamine (4-DMAPEA, 2.5 µM) and 5-hydroxytryptamine (5-HT, […]) were used as substrates selective of MAO-B or MAO-A, respectively. Evaluation of the test compounds on rMAO activity was executed by measuring their effects on the production of 4-dimethylaminophenylacetic acid (DMAPAA) by rMAO-B and 5-hydroxyindoleacetic acid (5-HIAA) by rMAO-A with O2 using HPLC-ED (L-7110 LaChrom and amperometric detector L-3500 LaChrom Recipe, Hitachi, (Tokyo, Japan) (for more detail see methodological references). The IC50 values (average ± SD was measured in two independent experiments each in triplicate) were assessed representing percentage of inhibition in function of the negative logarithm of different inhibitor concentrations (10^−4 to 10^−8) using the GraphPad Prism software.

[2] = biological target: T2, rMAO-B (Rattus norvegicus, UniProt P19643); assay: Inhibition of rMAO-B in crude rat brain mitochondria (4-DMAPEA substrate, HPLC-ED); format: biochemical; settings: for IC50: crude rat brain mitochondria, substrate 4-DMAPEA 2.5 µM
T2 construct: using a suspension of crude rat brain mitochondria as enzyme source; from tissue; host or cells: rat brain (crude mitochondrial suspension)
T2 sequence (P19643 1-520): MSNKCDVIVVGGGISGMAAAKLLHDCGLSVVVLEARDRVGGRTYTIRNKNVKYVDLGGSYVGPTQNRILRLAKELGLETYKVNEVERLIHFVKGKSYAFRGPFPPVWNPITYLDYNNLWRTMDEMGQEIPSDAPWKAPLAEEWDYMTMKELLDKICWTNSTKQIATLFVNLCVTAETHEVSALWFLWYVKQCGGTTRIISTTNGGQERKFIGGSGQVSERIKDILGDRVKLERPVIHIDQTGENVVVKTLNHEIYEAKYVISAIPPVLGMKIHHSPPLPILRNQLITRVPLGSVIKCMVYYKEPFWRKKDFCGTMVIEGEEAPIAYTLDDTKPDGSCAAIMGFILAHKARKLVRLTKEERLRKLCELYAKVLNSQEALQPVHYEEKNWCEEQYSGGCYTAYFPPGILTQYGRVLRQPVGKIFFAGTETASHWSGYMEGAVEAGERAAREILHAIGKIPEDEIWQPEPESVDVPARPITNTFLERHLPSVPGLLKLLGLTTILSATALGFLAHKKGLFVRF
Method: as §1, §2

Row | Compound | IC50 [1] | IC50 [2] | Fold lower IMAO activity than ChC4 ([2]; rMAO-B, relative to ChC4) | rMAO-B inhibitory activity in vitro (in words) [2]
1 | COc1ccc2cc(C(=O)C=Cc3ccccc3)c(=O)oc2c1 [ChC1, 3-Cinnamoyl-7-methoxy-2H-chromen-2-one] | > 10 µM | > 10 µM |  | 
2 | COc1ccc2cc(C(=O)/C=C/c3ccccc3O)c(=O)oc2c1 [ChC2, (E)-3-(3-(2-Hydroxyphenyl)acryloyl)-7-methoxy-2H-chromen-2-one] | > 10 µM | > 10 µM |  | loss of the inhibitory activity; also recorded: does not show in vitro activity
3 | COc1ccc2cc(C(=O)/C=C/c3ccccc3OC)c(=O)oc2c1 [ChC3, (E)-7-methoxy-3-(3-(2-methoxyphenyl)acryloyl)-2H-chromen-2-one] | > 10 µM | > 10 µM |  | 
4 | COc1ccc2cc(C(=O)/C=C/c3cccc(O)c3)c(=O)oc2c1 [ChC4, (E)-3-(3-(3-hydroxyphenyl)acryloyl)-7-methoxy-2H-chromen-2-one] | > 10 µM | 0.76 ± 0.08 µM |  | 
5 | COc1ccc(/C=C/C(=O)c2cc3ccc(OC)cc3oc2=O)cc1 [ChC6, (E)-7-methoxy-3-(3-(4-methoxyphenyl)acryloyl)-2H-chromen-2-one] | > 10 µM | 6.96 ± 0.07 µM |  | 
6 | COc1ccc(OC)c(/C=C/C(=O)c2cc3ccc(OC)cc3oc2=O)c1 [ChC8, (E)-3-(3-(2,5-dimethoxyphenyl)acryloyl)-7-methoxy-2H-chromen-2-one] | > 10 µM | > 10 µM |  | 
7 | COc1ccc2cc(C(=O)/C=C/c3ccc4c(c3)OCO4)c(=O)oc2c1 [ChC9, (E)-3-(3-(benzo[d][1,3]dioxol-5-yl)acryloyl)-7-methoxy-2H-chromen-2-one] | > 10 µM | 3.71 ± 0.68 µM |  | 
8 | COc1ccc2cc(C(=O)/C=C/c3ccc(SC)cc3)c(=O)oc2c1 [ChC11] | > 10 µM | 5.88 ± 0.57 µM |  | 
9 | COc1ccc2cc(C(=O)/C=C/c3ccc(N(C)C)cc3)c(=O)oc2c1 [ChC13, (E)-3-(3-(4-(dimethylamino)phenyl)acryloyl)-7-methoxy-2H-chromen-2-one] | > 10 µM | > 10 µM |  | 

Second part, led by results:

Row | IC50 [1] | IC50 [2] | Fold lower IMAO activity than ChC4 ([2]; rMAO-B, relative to ChC4) | Compound | rMAO-B inhibitory activity in vitro (in words) [2]
10 | > 10 µM | 9.63 ± 0.9 µM | approximately 12 fold | COc1cccc(/C=C/C(=O)c2cc3ccc(OC)cc3oc2=O)c1 [ChC5, (E)-7-methoxy-3-(3-(3-methoxyphenyl)acryloyl)-2H-chromen-2-one] | 
11 | > 10 µM | > 10 µM |  | COc1ccc2cc(C(=O)/C=C/c3ccc(O)c(OC)c3)c(=O)oc2c1 [ChC10] | loss of the inhibitory activity
12 | > 10 µM | > 10 µM |  | COc1ccc2cc(C(=O)/C=C/c3cc(Br)c(OC)c(Br)c3)c(=O)oc2c1 [ChC12, (E)-3-(3-(3,5-dibromo-4-methoxyphenyl)acryloyl)-7-methoxy-2H-chromen-2-one] | 
13 | > 10 µM | > 10 µM |  | COc1ccc2cc(C(=O)/C=C/c3ccc(Br)cc3)c(=O)oc2c1 [ChC14, (E)-3-(3-(4-bromophenyl)acryloyl)-7-methoxy-2H-chromen-2-one] | 
